In patent US20260070899A1, “N-(2-(4-CYANOTHIAZOLIDIN-3-YL)-2-OXOETHYL)-QUINOLINE-4-CARBOXAMIDES” (AstraZeneca AB, priority 2022, published 2026):

Assays:
[1] = target: T1, FAP enzyme activity in mouse plasma (Mus musculus, UniProt P97321); assay: FAP target engagement enzyme activity in mouse plasma (in vivo); settings: male C57Bl/6 mice, single oral dose 3 or 10 mg/kg; exposure vs plasma FAP activity, Imax fixed to 1
T1 construct: tissue Charles River; host or cells: plasma of male C57Bl/6 mice after oral dosing
T1 sequence (P97321 24-761 limits assumed): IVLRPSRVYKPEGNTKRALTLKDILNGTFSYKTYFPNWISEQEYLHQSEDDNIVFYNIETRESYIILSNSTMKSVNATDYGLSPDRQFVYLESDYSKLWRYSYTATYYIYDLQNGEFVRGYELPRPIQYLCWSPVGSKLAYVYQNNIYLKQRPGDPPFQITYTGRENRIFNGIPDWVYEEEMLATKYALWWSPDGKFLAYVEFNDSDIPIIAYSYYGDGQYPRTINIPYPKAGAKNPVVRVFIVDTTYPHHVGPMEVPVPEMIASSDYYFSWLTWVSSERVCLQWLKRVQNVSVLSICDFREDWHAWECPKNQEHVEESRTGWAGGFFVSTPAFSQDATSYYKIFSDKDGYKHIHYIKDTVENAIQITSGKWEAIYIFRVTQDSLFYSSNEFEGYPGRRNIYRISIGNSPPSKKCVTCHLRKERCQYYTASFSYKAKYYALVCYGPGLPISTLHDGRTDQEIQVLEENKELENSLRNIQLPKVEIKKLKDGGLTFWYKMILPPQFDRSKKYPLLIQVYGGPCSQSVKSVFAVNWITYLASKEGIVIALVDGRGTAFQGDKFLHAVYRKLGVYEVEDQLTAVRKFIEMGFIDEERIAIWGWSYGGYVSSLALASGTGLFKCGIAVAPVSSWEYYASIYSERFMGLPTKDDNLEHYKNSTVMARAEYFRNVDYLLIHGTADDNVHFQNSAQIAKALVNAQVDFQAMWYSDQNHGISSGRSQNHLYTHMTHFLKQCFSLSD
Procedure: The effect of test compound on FAP enzyme activity in mouse plasma was evaluated in an enzymatic assay using the Fibroblast Activation Protein alpha (FAP) specific fluorogenic substrate dipeptide-Coumarin, Ala-Pro-AMC, (ARI-3144). In this assay, FAP cleaves Ala-Pro-AMC to release free AMC which is measured as a fluorescent signal that correlates with enzyme activity.
Male C57Bl/6 mice (Charles River, Germany), 8 weeks of age, were single housed in a temperature-controlled room with a 12-hour light/dark cycle (06:00-18:00 light). The mice had ad libitum access to water and rodent chow diet (R70, Lactamin, Kimstad, Sweden), and were acclimated for 5 days upon arrival. After acclimation, all mice received a single oral dose of test compound (3 or 10 mg/kg). Blood samples for whole blood compound exposure measurements were taken at 0.25, 0.5, 1, 2, 4, 8 and 24 h post oral dosing. Samples were collected in EDTA capillary tubes (20 μL, K2E, REF 19.447) and were transferred to a 96-deep well plate (NUNC, Thermo Discher Scientific) and stored at −20° C. until further analyses were performed. […]
Recombinant human FAP (PB-17-1837, construct PL-17-0278, cd33-FAP (27-757)-6His, Mw85926 Da) was used as a standard for this assay. […] The plates were read on a Beckman Paradigm reader with excitation 360 nm and emission 465 nm. Fluorescence measurements were performed with kinetic read every 5 minutes for 60 min at rt. Data were analyzed in Excel (IDBS XLfit Add-In) using a Linear Regression (y=k*x+m) model to prepare a human recombinant FAP standard curve.
On the day of the assay, plasma was diluted (1:2) to 20 μL volume in buffer (PBS, 0.1% BSA) and 7.5 μL was transferred to the assay plate (384-well black, fluotrack PS, Greiner 781076). […] The plates were read on a Beckman Paradigm reader with excitation 360 nm and emission 465 nm. Fluorescence measurements were performed with kinetic read every 5 minutes for 60 minutes at rt. As noted above, FAP cleaves Ala-Pro-AMC to release free AMC which is measured as a fluorescent signal. […]

[2] = target: T2, human dipeptidylpeptidase 9 (hDPP9) (Homo sapiens, UniProt Q86TI2); assay: hDPP9 inhibition assay; format: biochemical; settings: hDPP9 0.4 nM, Ala-Pro-amino-methylcoumarin 5 μM; n = 1
T2 construct: purchased BPS Bioscience 80090
Procedure: Compounds were tested in a biochemical inhibition assay using human dipeptidylpeptidase 9 (hDPP9) enzyme at 0.4 nM FAC (BPS Bioscience, #80090) and the substrate Ala-Pro-amino-methylcoumarin (BPS Bioscience #80305) at 5 μM FAC. The enzymatic reactions were conducted in duplicate at rt for 30 min in 50 μL DPP assay buffer (BPS Bioscience, #80300). Compound solutions (in DMSO) at 10 CR, 3 fold dilution series were prepared in assay buffer ten-fold higher than the final concentration, and 5 μL of the dilution was added to a 50 μL reaction so that the highest compound concentration was 100 μM FAC and the concentration of DMSO was 1% in all wells. The plates were read on a Tecan Infinite M1000 microplate reader with excitation 340 nm and emission 460 nm. Data were analyzed in Graph Pad Prism. […] Raw data signals were normalized using 1% DMSO as 0% control and no enzyme as 100% inhibitor control.

T2 sequence (Q86TI2 whole entry): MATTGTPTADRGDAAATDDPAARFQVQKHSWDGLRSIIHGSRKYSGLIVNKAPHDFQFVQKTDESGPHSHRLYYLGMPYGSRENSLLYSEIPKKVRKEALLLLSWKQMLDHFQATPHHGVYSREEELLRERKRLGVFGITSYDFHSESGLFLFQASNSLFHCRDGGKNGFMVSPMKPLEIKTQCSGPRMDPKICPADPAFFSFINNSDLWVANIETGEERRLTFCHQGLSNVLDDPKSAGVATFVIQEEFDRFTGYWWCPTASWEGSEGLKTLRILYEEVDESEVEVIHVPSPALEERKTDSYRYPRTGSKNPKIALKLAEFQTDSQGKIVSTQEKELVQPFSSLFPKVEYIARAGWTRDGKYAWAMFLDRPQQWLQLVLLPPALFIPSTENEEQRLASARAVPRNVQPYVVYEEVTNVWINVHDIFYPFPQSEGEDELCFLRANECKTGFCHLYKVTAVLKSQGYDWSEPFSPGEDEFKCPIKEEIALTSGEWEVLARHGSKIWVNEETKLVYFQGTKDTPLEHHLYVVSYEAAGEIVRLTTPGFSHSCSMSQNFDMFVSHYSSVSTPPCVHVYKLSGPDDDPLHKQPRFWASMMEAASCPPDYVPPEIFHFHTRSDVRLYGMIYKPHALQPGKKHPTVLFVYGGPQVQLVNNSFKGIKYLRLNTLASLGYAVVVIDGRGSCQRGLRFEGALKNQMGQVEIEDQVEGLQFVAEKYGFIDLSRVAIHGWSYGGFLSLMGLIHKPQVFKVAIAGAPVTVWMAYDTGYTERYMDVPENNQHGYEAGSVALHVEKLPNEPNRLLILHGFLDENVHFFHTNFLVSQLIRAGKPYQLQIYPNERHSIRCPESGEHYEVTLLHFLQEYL

Row | IC50 [1] [nM] | IC50 [2] [nM] | SMILES
1 | 2.6 |  | CO[C@H]1CC[C@H](c2ccc3nccc(C(=O)NCC(=O)N4CSC[C@H]4C#N)c3c2)CC1 (single isomer, unassigned) [Example 78, N-(2-((R)-4-Cyanothiazolidin-3-yl)-2-oxoethyl)-6-((1r,4R*)-4-methoxycyclohexyl)quinoline-4-carboxamide]
2 | 7.6 | 1900 | CC(C)(F)COc1ccc2nccc(C(=O)NCC(=O)N3CSC[C@H]3C#N)c2c1 [Example 3, (R)—N-(2-(4-Cyanothiazolidin-3-yl)-2-oxoethyl)-6-(2-fluoro-2-methylpropoxy)quinoline-4-carboxamide]
3 | 8.8 |  | N#C[C@@H]1CSCN1C(=O)CNC(=O)c1ccnc2ccc(C3CCOCC3)cc12 [Example 20, (R)—N-(2-(4-Cyanothiazolidin-3-yl)-2-oxoethyl)-6-(tetrahydro-2H-pyran-4-yl)quinoline-4-carboxamide]
